Experimental data taken from patent US20210285955A1, “METHODS AND REAGENTS FOR ANALYZING PROTEIN-PROTEIN INTERFACES” (Revolution Medicines, Inc., priority 2017, published 2021).

Experiments:
Assay type in all cases: binding
KRASGTP/S39C lite = target: T1, KRASGTP/S39C lite (Homo sapiens, UniProt P01116, C118S/C51S/C80L/G12V/S39C); assay: Conjugate formation (cross-linking) assessed by SDS-PAGE
T1 construct: KRASGTP/S39C lite (in house; residues 1-169 containing G12V/S39C/C51S/C80L/C118S); made in house
Protocol: General Protocol: This protocol describes a method for the formation of target protein-compound conjugates.
(§1) Experimental Protocol: A 1:2 molar ratio of target protein and compound are mixed together in 12.5 mM HEPES pH 7.4, 75 mM NaCl buffer containing 2% DMSO. The reaction is incubated at 37° C. for 30 min, followed by overnight incubation at room temperature. Cross-linking efficiency is assessed by SDS-PAGE gel. Conjugates migrate slower than non-cross-linked target protein. For thiol reactive compounds, the Cys specific attachment of the compound to the target protein can be further confirmed by SDS-PAGE after the addition of 100 mM DTT to the reaction mixture, which reduces the conjugate back into its components.
Experimental Protocol: A 1:2 molar ratio of KRASGTP/S39C lite and C2-FK506 are mixed together in 12.5 mM HEPES pH 7.4, 75 mM NaCl buffer containing 2% DMSO. The reaction is incubated at 37° C. for 30 min, followed by overnight incubation at room temperature. Cross-linking efficiency is assessed by SDS-PAGE gel. Attachment of C2-FK506 to Cysteine 39 on KRASGTP/S39C lite is also assessed by incubation of the reaction mixture with 100 mM DTT.

[1] = target: T2, KRASGTP/S39C lite and FKBP12 (Homo sapiens, UniProt P01116+P62942, C118S/C51S/C80L/G12V/S39C); assay: Ternary complex formation by SEC and SDS-PAGE; conditions: 1:2:2 compound:FKBP12:KRAS, SEC profile and SDS-PAGE of elution peaks
T2 construct: KRASGTP/S39C lite (in house; residues 1-169 containing G12V/S39C/C51S/C80L/C118S); made in house
Protocol: (§2) A 1:2:2 molar ratio of compound, presenter protein, and target protein are mixed together in 12.5 mM HEPES pH 7.4, 75 mM NaCl buffer containing 2% DMSO. The reaction is incubated at 37° C. for 30 min, followed by overnight incubation at room temperature. Pure complex is isolated by Size Exclusion Chromatography (SEC) purification. The reaction mixture is directly injected on a Superdex 75 column (CV 120 mL) pre-equilibrated with buffer containing 12.5 mM HEPES pH 7.4, 75 mM NaCl. Complex elutes at a higher molecular weight than unreacted target protein and presenter protein. To confirm presence of complex in the elution peak, samples are assessed by SDS-PAGE.
Experimental Protocol: A 1:2:2 molar ratio of C2-Holt, FKBP12, and KRASGTP/S39C lite are mixed together in 12.5 mM HEPES pH 7.4, 75 mM NaCl buffer containing 2% DMSO. The reaction is incubated at 37° C. for 30 min, followed by overnight incubation at room temperature. Pure complex is isolated by Size Exclusion Chromatography (SEC) purification. The reaction mixture is directly injected on a Superdex 75 column (CV 120 mL) pre-equilibrated with buffer containing 12.5 mM HEPES pH 7.4, 75 mM NaCl. […] To confirm the presence of KRASGTP/S39C lite and FKBP12 in the elution peak, samples are also assessed by SDS-PAGE.

[2] = target: T3, PTP1BS187C lite and FKBP12 (Homo sapiens, UniProt P18031+P62942, C121S/C32S/C92V/S187C); assay: Ternary complex formation by SEC and SDS-PAGE; conditions: 1:3:3 compound:FKBP12:PTP1B, SEC profile and SDS-PAGE of elution peaks
T3 construct: (in house; residues 1-293 containing C32S/C92V/C121S/S187C); made in house
Protocol: as §2
Equipment: Mini-PROTEAN TGX Gel (Bio-Rad), Superdex 75 (GE Healthcare, CV 120 mL) Experimental Protocol: A 1:3:3 molar ratio of C3SLF, FKBP12, and PTPIBswc lite are mixed together in 12.5 mM HEPES pH 7.4, 75 mM NaCl buffer containing 4% DMSO. The reaction is incubated at 37° C. for 30 min, followed by overnight incubation at room temperature. Pure complex is isolated by Size Exclusion Chromatography (SEC) purification. The reaction mixture is directly injected on a Superdex 75 column (CV 120 mL) pre-equilibrated with buffer containing 12.5 mM HEPES pH 7.4, 75 mM NaCl. […] To confirm the presence of PTP1BS187C lite and FKBP12 in the elution peak, samples are also assessed by SDS-PAGE. […]

KRASGTP/G12C [3] = target: T4, KRASGTP/G12C (Homo sapiens, UniProt P01116+P62942, G12C); assay: Presenter dependency of disulfide cross-linking by mass spectrometry; conditions: 2 μM KRAS, 10 μM ligand, 4 hours room temperature, MS
T4 construct: KRASGTP/G12C (in-house, residues 1-169); made in house
Protocol: This protocol describes methods to analyzing cross-linking efficiency using mass spectrometry and gel shift assay in effort to assess the presenter dependency of conjugate formation.
Experimental protocol: In order to follow the kinetics of disulfide crosslinking reactions, Agilent 6230 TOF-LC/MS and Agilent 1260 HPLC instruments employing a AdvanceBio RP-mAb C4 column (2.1×100 mm, 3.5 μm) and equipped with an auto-sampler were used. HPLC grade acetonitrile and water (each containing 1.0 mM ammonium formate and 1% formic acid by volume) were used as mobile phase with the following ramp: 0.6 ml/min flow rate, water:acetonitrile=95:5 from 0.0 to 13.0 min ramping to water:acetonitrile=5:95 from 13.0 to 17.0 min. Total time=17.0 min.
All crosslinking reactions were performed in 1.5 mL amber colored glass vials equipped with 0.5 mL glass inserts. A water-soluble peptide (SEQ ID NO: 1: […]) was employed as an internal standard. Although the actual sequence of the internal standard is inconsequential, choice of amino acid residues were critical to avoid interference in the crosslinking assays. […] All reactions and standard solutions were prepared in HEPES (pH 7.4, 1.0 mM MgCl2) buffer.
Prior to every reaction, a standard curve was obtained for the individual components using a series of standard solutions (an example of standard curve analysis for FKBP12 is shown in Table 3 below). Using the data from standard curve, μmol of protein samples were plotted against the ratio of areas (sample:std) and a linear fit (y=mx+c) was employed to obtain the slope and intercept. The value of slope and intercept involved in these standard curves were accounted for during evaluation of the substrate and product concentration before and during the course of the reaction. For every substrate/product, an initial injection was followed up by a blank injection to verify presence of any residual protein/reagents. Based on this analysis the sequence of auto-sampler can be adjusted to included appropriate number of blank injections for removal of residual components, if any. The MS spectra were analyzed using Agilent MassHunter v B.07.0 software.
In a representative experiment to assess the presenter dependency of ligand cross-linking on the target protein, KRASGTP/G12C and either C3 or C4SLF ligand were incubated in the presence or absence of FKBP12 at concentrations of 2 μM KRAS, 10 μM FKBP12, 10 μM C3 or C4SLF for 4 hours at room temperature in 12.5 mM HEPES pH 7.4, 75 mM NaCl, 1 mM MgCl2, 3% DMSO. Analysis of the amount of KRAS undergoing disulfide cross-linking with the ligand using the method above.

KRASGTP/G12C [4] = target: T4, KRASGTP/G12C; assay: Cross-linking gel shift assay (12% SDS-PAGE); conditions: 60 μM KRAS, 180 μM FKBP12, 180 μM ligand, quenched by MMTS
Protocol: In parallel to mass spectrometry analysis, cross-linking reactions with C3 or […] were subjected to gel shift assay using 12% SDS-PAGE in the presence or absence of FKBP12 at the same experimental condition described above except that cross-linking reactions were set up at higher concentrations (60 μM KRAS, 180 μM FKBP12, and 180 μM C3 or […]) and they were quenched by MMTS to terminate the reaction.

[5] = target: T5, KRASGDP/S39C lite and CypAC52S (Homo sapiens, UniProt P01116+P62937, C118S/C51S/C52S/C80L/G12V/S39C); assay: Ternary complex formation by SEC and SDS-PAGE; conditions: 1:2:2 compound:CypAC52S:KRAS, SEC profile and SDS-PAGE of elution peaks
T5 construct: KRASGDP/S39C lite (in house; residues 1-169 containing G12V/S39C/C51S/C80L/C118S); made in house
Protocol: as §2
Equipment: Mini-PROTEAN TGX Gel (Bio-Rad), Superdex 75 (GE Healthcare, CV 120 mL) Experimental Protocol: A 1:2:2 molar ratio of SFAC4DS, CypAC52S, and KRASGDP/S39C lite are mixed together in 12.5 mM HEPES pH 7.4, 75 mM NaCl buffer containing 2% DMSO. The reaction is incubated at 37° C. for 30 min, followed by overnight incubation at room temperature. Pure complex is isolated by Size Exclusion Chromatography (SEC) purification. The reaction mixture is directly injected on a Superdex 75 column (CV 120 mL) pre-equilibrated with buffer containing 12.5 mM HEPES pH 7.4, 75 mM NaCl. […] To confirm the presence of KRASGDP/S39C lite and CypAC52S in the elution peak, samples are also assessed by SDS-PAGE.

CypAC52S = target: T6, CypAC52S (Homo sapiens, UniProt P62937, C52S); assay: Presenter cross-linking assessed by SDS-PAGE; conditions: CypA with Cysteine 52 mutated to Serine
T6 construct: made in house
Protocol: (§3) Experimental Protocol: A 1:2 molar ratio of KRASGTP/G12C lite and SFAX9DS are mixed together in 12.5 mM HEPES pH 7.4, 75 mM NaCl buffer containing 2% DMSO. The reaction is incubated at 37° C. for 30 min, followed by overnight incubation at room temperature. Cross-linking efficiency is assessed by SDS-PAGE gel. […] Cysteine 52 as a reactive Cysteine on CypA and was mutated to Serine to abrogate presenter cross-linking.

Wild-type CypA = Wild-type CypA (Homo sapiens, UniProt P62937); assay: Presenter cross-linking assessed by SDS-PAGE
Protocol: as §3

KRASGTP/G12C lite = target: T7, KRASGTP/G12C lite (Homo sapiens, UniProt P01116, C118S/C51S/C80L/G12C); assay: Conjugate formation (cross-linking) assessed by SDS-PAGE; conditions: 1:2 molar ratio protein:compound, 37° C. 30 min then overnight room temperature
T7 construct: KRASGTP/G12C lite (in house; residues 1-169 containing G12C/C51S/C80L/C118S); made in house
Protocol: as §1, §3

Sequence of Wild-type CypA (P62937 whole entry): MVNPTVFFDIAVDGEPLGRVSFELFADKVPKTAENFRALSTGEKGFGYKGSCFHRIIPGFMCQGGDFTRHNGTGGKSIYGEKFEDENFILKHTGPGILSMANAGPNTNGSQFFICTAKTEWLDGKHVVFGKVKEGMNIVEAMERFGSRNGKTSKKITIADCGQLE
T6 sequence (P62937 whole entry C52S): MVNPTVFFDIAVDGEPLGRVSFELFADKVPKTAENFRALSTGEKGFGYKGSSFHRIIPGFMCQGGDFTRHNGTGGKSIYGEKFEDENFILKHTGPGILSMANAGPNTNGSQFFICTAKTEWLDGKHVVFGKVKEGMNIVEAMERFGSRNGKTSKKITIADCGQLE
T3 sequence (P18031 1-293 C32S/C92V/C121S/S187C limits assumed): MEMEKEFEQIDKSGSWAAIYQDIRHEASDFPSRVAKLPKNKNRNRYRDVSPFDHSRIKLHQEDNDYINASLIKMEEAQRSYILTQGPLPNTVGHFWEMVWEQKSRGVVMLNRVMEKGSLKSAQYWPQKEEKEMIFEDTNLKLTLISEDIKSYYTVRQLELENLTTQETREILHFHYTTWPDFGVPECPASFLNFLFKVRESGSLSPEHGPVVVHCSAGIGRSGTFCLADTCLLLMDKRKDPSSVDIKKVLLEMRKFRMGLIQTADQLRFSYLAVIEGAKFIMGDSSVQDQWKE
T3 sequence (P62942 whole entry, the tested form may be a part): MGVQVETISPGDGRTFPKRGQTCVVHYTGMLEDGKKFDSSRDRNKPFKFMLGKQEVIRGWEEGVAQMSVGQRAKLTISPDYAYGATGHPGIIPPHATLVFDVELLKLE

## CO[C@H]1C[C@@H](C)C/C(C)=C/[C@@H](CCCC(=O)NCCSSc2ccccn2)C(=O)C[C@H](O)[C@@H](C)[C@@H](/C(C)=C/[C@@H]2CC[C@@H](O)[C@H](OC)C2)OC(=O)[C@@H]2CCCCN2C(=O)C(=O)[C@]2(O)O[C@H]1[C@@H](OC)C[C@H]2C [Compound C2-FK506]
KRASGTP/S39C lite; 1:2 molar ratio protein:compound, 37° C. 30 min then overnight room temperature, SDS-PAGE
  Cross-linking efficiency: cross-links efficiently
KRASGTP/S39C lite; SDS-PAGE after 100 mM DTT
  Cys specific attachment of the compound: specific for Cysteine 39

## CCC(C)(C)C(=O)C(=O)N1CCCC[C@H]1C(=O)OCCCC(=O)NCCSSc1ccccn1 [Compound C2Holt]
[1]
  Formation of ternary complex: confirm the formation

## CCC(C)(C)C(=O)C(=O)N1CCCC[C@H]1C(=O)O[C@H](CCc1ccc(OC)c(OC)c1)c1cccc(NC(=O)CCSSc2ccccn2)c1 [Compound C3SLF]
[2]
  Formation of ternary complex: confirm the formation
KRASGTP/G12C [3]; FKBP12 + (10 μM)
  % xlink to KRAS: 47.5%
KRASGTP/G12C [3]; FKBP12 − (absent)
  % xlink to KRAS: 9.6%
KRASGTP/G12C [4]
  Ligand cross-linking efficiency in presence vs absence of FKBP12: boosted significantly

## CCC(C)(C)C(=O)C(=O)N1CCCC[C@H]1C(=O)O[C@H](CCc1ccc(OC)c(OC)c1)c1cccc(NC(=O)CCCSSc2ccccn2)c1 [Compound C4SLF, (R)-3-(3,4-dimethoxyphenyl)-1-(3-(4-(pyridin-2-yldisulfanyl)butanamido)phenyl)propyl (S)-1-(3,3-dimethyl-2-oxopentanoyl)piperidine-2-carboxylate]
KRASGTP/G12C [3]; FKBP12 + (10 μM)
  % xlink to KRAS: 69.8%
KRASGTP/G12C [3]; FKBP12 − (absent)
  % xlink to KRAS: 7.0%
KRASGTP/G12C [4]
  Ligand cross-linking efficiency in presence vs absence of FKBP12: boosted significantly

## COC(=O)[C@@H]1CCCN(C(=O)[C@H](Cc2cccc(O)c2)NC(=O)[C@@H](NC(=O)CCCSSc2ccccn2)C(C)C)N1 [SFAC4DS]
[5]
  Formation of ternary complex: confirm the formation

## COC(=O)[C@@H]1CCCN(C(=O)[C@H](Cc2cccc(O)c2)NC(=O)[C@@H](NC(=O)CCOCCOCCSSc2ccccn2)C(C)C)N1 [SFAX9DS]
CypAC52S
  Cross-linking to presenter protein: does not cross-link
Wild-type CypA
  Cross-linking to presenter protein: also cross-linked
KRASGTP/G12C lite
  Cross-linking efficiency: cross-links efficiently
